Source: paper PMC4172929, “Patched Targeting Peptides for Imaging and Treatment of Hedgehog Positive Breast Tumors” (BioMed Research International, 2014)

System: 13762 breast carcinoma xenografts
Assay: Paclitaxel treatment of tumor xenografts (PTCH immunohistochemistry, tumor volume)
Type: in vivo, rat
Conditions: rats, 20 mg/kg paclitaxel
Procedure: All animal work was carried out in the Small Animal Imaging Facility (SAIF) at the University of Texas M.D. Anderson Cancer Center under an approved Institutional Animal Care and Use Committee (IACUC) protocol. Female Fischer 344 rats (150 ± 25 g, n = 6) (Harlan Sprague-Dawley, Indianapolis, IN) were inoculated subcutaneously with 0.1 mL of a 13762 breast carcinoma cell suspension (10^5 cells/rat of a breast tumor cell line specific to Fischer rats) into the hind legs using 25-gauge needles. Studies were performed 12–14 days after inoculation when tumors reached approximately 1 cm in diameter. For treatment studies, rats were injected with 20 mg/kg paclitaxel and reimaged 7 days later. After the posttreatment scan, tumors were removed and formalin sections were made. Control tumors were taken from untreated […] 13 days after inoculation. Sections were stained with an anti-patched antibody (Santa Cruz) using a peroxide-based immunohistochemical detection kit (Dako) according to the manufacturer's instructions.

CC(=O)O[C@H]1C(=O)[C@@]2(C)[C@H]([C@H](OC(=O)c3ccccc3)[C@]3(O)C[C@H](OC(=O)[C@H](O)[C@@H](NC(=O)c4ccccc4)c4ccccc4)C(C)=C1C3(C)C)[C@]1(OC(C)=O)CO[C@@H]1C[C@@H]2O [paclitaxel]
tumor volume after treatment: decrease | PTCH protein expression in the residual tumor (seven days after treatment, immunohistochemistry): increase
